US7462614B2, “Imidazotriazine compounds” (Smithkline Beecham Corporation, priority 2003, dated 2008)
pIC50: −log10 of the molar value.

Legend:
[1] = biological target: T1, truncated human PLK1 (kinase domain) (Homo sapiens, UniProt P53350); experiment: Assay for Inhibition of PLK1 (33P SPA enzyme activity); format: biochemical; settings: 1 μM ATP, 2 nM enzyme; read-out: Ave pIC50 PLK Enzyme Inhibition (converted)
T1 construct: made in house; host or cells: baculovirus-infected T. ni insect cells
Experimental: I. Assay for Inhibition of PLK1
A. Preparation of 6× N-Terminal His-Tagged PLK Kinase Domain
All procedures are performed at 4° C. Cells are lysed in 25 mM HEPES, 200 mM NaCl, 25 mM imidazole; pH 8.0. The homogenate is centrifuged at 14K rpm in a SLA-1500 rotor for 40 min and the supernatant filtered through a 1.2 micron filter. The supernatant is loaded onto a Nickel chelating Sepharose (Amersham Pharmacia) column and washed with 25 mM HEPES, 500 mM NaCl, 25 mM imidazole; pH 8.0. […] PLK is concentrated using a 10 kDa molecular weight cutoff membrane and then loaded onto a Superdex 75 gel filtration (Amersham BioSciences) column equilibrated in 25 mM HEPES, 1 mM DTT, 500 mM NaCl; pH 8.0. Fractions containing PLK are determined by SDS-PAGE. PLK is pooled, aliquoted and stored at […]. Samples are quality controlled using mass spectrometry.
B. Enzyme Activity±Inhibitors is Determined As Follows:
Compounds are added to the plate (1 μL in 100% DMSO).
Immediately upon addition of enzyme and thorough mixing, add 20 uL per well into 384-well white plates containing compounds and controls. […] The enzymatic reaction is stopped with 50 μl of bead mix (50 mM EDTA, 2 mg/ml Streptavidin-coated SPA beads in Standard Dulbecco's PBS (without Mg^2+and Ca^2+), and 60 μM ATP).

[2] = system: lung (H460) tumor cell line; experiment: Methylene Blue Growth Inhibition Assay, H460; format: cell-based; settings: Homo sapiens, NCI-H460, 72 h; H460, 3 days; read-out: MeB Cell Line IC50
From the text: (§1) II. Methylene Blue Growth Inhibition Assay
(§2) Medium was removed by aspiration.

[3] = system: colon (HCT116) tumor cell line; experiment: Methylene Blue Growth Inhibition Assay, HCT116; format: cell-based; settings: Homo sapiens, HCT-116, 72 h; HCT116, 3 days; read-out: MeB Cell Line IC50
From the text: as §1, §2

[4] = system: Normal Human foreskin fibroblasts (HFF); experiment: Methylene Blue Growth Inhibition Assay, HFF; format: cell-based; settings: 72 h, 3 days, read-out: MeB Cell Line IC50
From the text: as §1, §2

[5] = system: breast tumor (MCF7) cell line; experiment: Methylene Blue Growth Inhibition Assay, MCF7; format: cell-based; settings: Homo sapiens, 72 h; MCF7, 3 days; read-out: MeB Cell Line IC50
From the text: as §1, §2

[6] = system: prostate (PC3) tumor cell line; experiment: Methylene Blue Growth Inhibition Assay, PC3; format: cell-based; settings: Homo sapiens, 72 h; PC3, 3 days; read-out: MeB Cell Line IC50
From the text: as §1, §2

[7] = system: colon (RKO) tumor cell line; experiment: Methylene Blue Growth Inhibition Assay, RKO; format: cell-based; settings: Homo sapiens, 72 h, 3 days, read-out: MeB Cell Line IC50
From the text: as §1, §2

T1 sequence (P53350 21-346): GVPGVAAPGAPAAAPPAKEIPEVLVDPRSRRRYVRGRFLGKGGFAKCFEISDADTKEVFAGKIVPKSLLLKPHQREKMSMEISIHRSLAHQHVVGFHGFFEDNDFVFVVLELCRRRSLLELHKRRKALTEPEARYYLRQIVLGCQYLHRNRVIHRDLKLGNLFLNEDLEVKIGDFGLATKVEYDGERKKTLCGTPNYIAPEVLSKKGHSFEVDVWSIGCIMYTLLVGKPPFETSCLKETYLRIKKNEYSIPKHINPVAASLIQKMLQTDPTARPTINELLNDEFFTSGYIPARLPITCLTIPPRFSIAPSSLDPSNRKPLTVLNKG

Structure (SMILES): Cc1nc(-c2cccc(C(F)(F)F)c2)n2nc(Nc3cccc(CCO)c3)ncc12 [Example 44, 2-[3-({5-Methyl-7-[3-(trifluoromethyl)phenyl]imidazo[5,1-f][1,2,4]triazin-2-yl}amino)phenyl]ethanol]
- IC50 [1]: < 0.1 µM
- pIC50 [2]: 5.00 to 6.00
- pIC50 [3]: 5.00 to 6.00
- pIC50 [4]: 4.52 to 5.00
- pIC50 [5]: 4.52 to 5.00
- pIC50 [6]: 4.52 to 5.00
- pIC50 [7]: 5.00 to 6.00

Structure (SMILES): Cc1nc(-c2ccccc2)n2nc(Nc3cccc(CCS(=O)(=O)O)c3)ncc12 [Example 57, 2-{3-[(5-Methyl-7-phenylimidazo[5,1-f][1,2,4]triazin-2-yl)amino]phenyl}ethanesulfonic acid]
- IC50 [1]: < 0.1 µM
- pIC50 [2]: 4.52 to 5.00
- pIC50 [3]: 4.52 to 5.00
- pIC50 [4]: 4.52 to 5.00
- pIC50 [5]: 4.52 to 5.00
- pIC50 [6]: 4.52 to 5.00
- pIC50 [7]: 4.52 to 5.00

Structure (SMILES): Cc1nc(-c2ccccc2)n2nc(Nc3cccc(CCO)c3)ncc12 [Example 19, 2-{3-[(5-Methyl-7-phenylimidazo[5,1-f][1,2,4]triazin-2-yl)amino]phenyl}ethanol]
- IC50 [1]: < 0.1 µM
- pIC50 [2]: 5.00 to 6.00
- pIC50 [3]: 5.00 to 6.00
- pIC50 [4]: 4.52 to 5.00
- pIC50 [5]: 5.00 to 6.00
- pIC50 [6]: 4.52 to 5.00
- pIC50 [7]: 5.00 to 6.00

Structure (SMILES): COc1cc(Nc2ncc3c(C)nc(-c4ccccc4O)n3n2)cc(OC)c1OC [Example 22, 2-{5-Methyl-2-[(3,4,5-trimethoxyphenyl)amino]imidazo[5,1-f][1,2,4]triazin-7-yl}phenol]
- IC50 [1]: 0.1 to 10 µM
- pIC50 [2]: 4.52 to 5.00
- pIC50 [3]: 4.52 to 5.00
- pIC50 [4]: 4.52 to 5.00
- pIC50 [5]: 4.52 to 5.00
- pIC50 [6]: 4.52 to 5.00
- pIC50 [7]: 4.52 to 5.00

Structure (SMILES): COc1cc(Nc2ncc3c(C)nc(-c4cccc(C(F)(F)F)c4)n3n2)cc(OC)c1OC [Example 5, 5-Methyl-7-[3-(trifluoromethyl)phenyl]-N-(3,4,5-trimethoxyphenyl)-imidazo[5,1-f][1,2,4]triazin-2-amine]
- pIC50 [2]: 5.00 to 6.00
- pIC50 [3]: 5.00 to 6.00
- pIC50 [4]: 5.00 to 6.00
- pIC50 [5]: 5.00 to 6.00
- pIC50 [6]: 5.00 to 6.00
- pIC50 [7]: 5.00 to 6.00

Structure (SMILES): COc1cc(Nc2ncc3c(C)nc(-c4cccc(C(N)=O)c4)n3n2)cc(OC)c1OC [Example 16, 3-{5-Methyl-2-[(3,4,5-trimethoxyphenyl)amino]imidazo[5,1-f][1,2,4]triazin-7-yl}benzamide]
- IC50 [1]: 0.1 to 10 µM
- pIC50 [2]: 4.52 to 5.00
- pIC50 [3]: 4.52 to 5.00
- pIC50 [4]: 4.52 to 5.00
- pIC50 [5]: 4.52 to 5.00
- pIC50 [6]: 4.52 to 5.00
- pIC50 [7]: 4.52 to 5.00

Structure (SMILES): COc1cc(Nc2ncc3c(C)nc(-c4cn(C)c5ccccc45)n3n2)cc(OC)c1OC [Example 35, 5-Methyl-7-(1-methyl-1H-indol-3-yl)-N-(3,4,5-trimethoxyphenyl)-imidazo[5,1-f][1,2,4]triazin-2-amine]
- IC50 [1]: 0.1 to 10 µM

Structure (SMILES): COc1cc(Nc2ncc3c(C)nc(-c4cccc(Nc5cccc(CS(=O)(=O)N(C)C)c5)c4)n3n2)cc(OC)c1OC [Example 67, N,N-Dimethyl-1-{3-[(3-{5-methyl-2-[(3,4,5-trimethoxyphenyl)amino]imidazo[5,1-f][1,2,4]triazin-7-yl}phenyl)amino]phenyl}methanesulfonamide]
- IC50 [1]: 0.1 to 10 µM

Structure (SMILES): CCS(=O)(=O)c1ccc(OC)c(Nc2ncc3c(C)nc(-c4cccc(Br)c4)n3n2)c1 [Example 14, 7-(3-Bromophenyl)-N-[5-(ethylsulfonyl)-2-methoxyphenyl]-5-methylimidazo[5,1-f][1,2,4]triazin-2-amine]
- IC50 [1]: 0.1 to 10 µM

Structure (SMILES): COc1ccc(Nc2ncc3c(C)nc(-c4ccc(OC)cc4)n3n2)cc1 [Example 87, 5-Methyl-N,7-bis[4-(methyloxy)phenyl]imidazo[5,1-f][1,2,4]triazin-2-amine]
- IC50 [1]: 0.1 to 10 µM

Structure (SMILES): COc1cc(Nc2ncc3c(C)nc(-c4ccccc4NC(=O)C(C)(C)C)n3n2)cc(OC)c1OC [Example 6, 2,2-Dimethyl-N-(2-{5-methyl-2-[(3,4,5-trimethoxyphenyl)amino]-imidazo[5,1-f][1,2,4]triazin-7-yl}phenyl)propanamide]
- IC50 [1]: > 10 µM

Structure (SMILES): COc1ccc(Nc2ncc3c(C)nc(-c4ccccc4Cl)n3n2)cc1 [Example 75, 7-(2-Chlorophenyl)-5-methyl-N-[4-(methyloxy)phenyl]imidazo[5,1-f][1,2,4]triazin-2-amine]
- IC50 [1]: 0.1 to 10 µM

Structure (SMILES): COc1ccc(Nc2ncc3c(C)nc(C4CCCCC4)n3n2)cc1 [Example 85, 7-Cyclohexyl-5-methyl-N-[4-(methyloxy)phenyl]imidazo[5,1-f][1,2,4]triazin-2-amine]
- IC50 [1]: 0.1 to 10 µM

Structure (SMILES): COc1cc(Nc2ncc3c(C)nc(-c4ccccc4[N+](=O)[O-])n3n2)cc(OC)c1OC [Example 2, 5-Methyl-7-(2-nitrophenyl)-N-(3,4,5-trimethoxyvhenyl)imidazo[5,1-f][1,2,4]triazin-2-amine]
- IC50 [1]: 0.1 to 10 µM

Structure (SMILES): COc1ccc(Nc2ncc3c(C)nc(-c4cc5ccccc5n4C)n3n2)cc1 [Example 78, 5-Methyl-7-(1-methyl-1H-indol-2-yl)-N-[4-(methyloxy)phenyl]imidazo[5,1-f][1,2,4]triazin-2-amine]
- IC50 [1]: > 10 µM

Structure (SMILES): CC(=O)N1CCc2cc(Nc3ncc4c(C)nc(-c5ccccc5)n4n3)ccc21 [Example 99, N-(1-Acetyl-2,3-dihydro-1H-indol-5-yl)-5-methyl-7-phenylimidazo[5,1-f][1,2,4]triazin-2-amine]
- IC50 [1]: 0.1 to 10 µM

Structure (SMILES): COc1ccc(Nc2ncc3c(C)nc(-c4cn(C)c5ccccc45)n3n2)cc1 [Example 76, 5-Methyl-7-(1-methyl-1H-indol-3-yl)-N-[4-(methyloxy)phenyl]imidazo[5,1-f][1,2,4]triazin-2-amine]
- IC50 [1]: 0.1 to 10 µM

Structure (SMILES): CC(=O)Nc1ccc(Nc2ncc3c(C)nc(-c4ccccc4)n3n2)cc1 [Example 94, N-{4-[(5-Methyl-7-phenylimidazo[5,1-f][1,2,4]triazin-2-yl)amino]phenyl}acetamide]
- IC50 [1]: 0.1 to 10 µM

Structure (SMILES): COc1cc(Nc2ncc3c(C)nc(-c4ccccc4Br)n3n2)cc(OC)c1OC [Example 3]
- IC50 [1]: 0.1 to 10 µM

Structure (SMILES): COc1cccc(Nc2ncc3c(C)nc(-c4ccccc4)n3n2)c1 [Example 106, 5-Methyl-N-[3-(methyloxy)phenyl]-7-phenylimidazo[5,1-f][1,2,4]triazin-2-amine]
- IC50 [1]: 0.1 to 10 µM

Structure (SMILES): COC(=O)c1ccc(-c2nc(C)c3cnc(Nc4cc(OC)c(OC)c(OC)c4)nn23)cc1 [Example 29, Methyl 4-{5-methyl-2-[(3,4,5-trimethoxyphenyl)amino]imidazo-[5,1-f][1,2,4]triazin-7-yl}benzoate]
- IC50 [1]: 0.1 to 10 µM

Structure (SMILES): COc1ccc(Nc2ncc3c(C)nc(-c4ccccc4)n3n2)cc1OC [Example 92, N-[3,4-Bis(methyloxy)phenyl]-5-methyl-7-phenylimidazo[5,1-f][1,2,4]triazin-2-amine]
- IC50 [1]: 0.1 to 10 µM

Structure (SMILES): COc1ccc(Nc2ncc3c(C)nc(-c4ccc(Br)s4)n3n2)cc1 [Example 70, 7-(5-Bromo-2-thienyl)-5-methyl-N-[4-(methyloxy)phenyl]imidazo[5.1-f][1,2,4]triazin-2-amine]
- IC50 [1]: 0.1 to 10 µM

Structure (SMILES): Cc1nc(-c2cccc(C(F)(F)F)c2)n2nc(Nc3ccc(O)cc3)ncc12 [Example 49, 4-({5-Methyl-7-[3-(trifluoromethyl)phenyl]imidazo[5,1-f][1,2,4]triazin-2-yl}amino)phenol]
- IC50 [1]: < 0.1 µM

Structure (SMILES): COc1ccc(Nc2ncc3c(C)nc(-c4sccc4Br)n3n2)cc1 [Example 71, 7-(3-Bromo-2-thienyl)-5-methyl-N-[4-(methyloxy)phenyl]imidazo[5,1-f][1,2,4]triazin-2-amine]
- IC50 [1]: 0.1 to 10 µM

Structure (SMILES): COc1cc(Nc2ncc3c(C)nc(-c4cccc(-c5ccc(CC(N)C(=O)O)cc5)c4)n3n2)cc(OC)c1OC (stereo not drawn) [Example 60, 2-Amino-3-(3′-{5-methyl-2-[(3,4,5-trimethoxyphenyl)amino]imidazo-[5,1-f][1,2,4]triazin-7-yl}-1,1′-biphenyl-4-yl)propanoic acid]
- IC50 [1]: 0.1 to 10 µM

Structure (SMILES): COc1ccc(Nc2ncc3c(C)nc(-c4ccc(F)cc4)n3n2)cc1 [Example 82, 7-(4-Fluorophenyl)-5-methyl-N-[4-(methyloxy)phenyl]-imidazo[5,1-f][1,2,4]triazin-2-amine]
- IC50 [1]: 0.1 to 10 µM

Structure (SMILES): COc1ccc(Nc2ncc3c(C)nc(C4CCOCC4)n3n2)cc1 [Example 72, 5-Methyl-N-[4-(methyloxy)phenyl]-7-(tetrahydro-2H-pyran-4-yl)imidazo[5,1-f][1,2,4]triazin-2-amine]
- IC50 [1]: 0.1 to 10 µM
